Test results from PMC8624133, “10th Trends in Medical Mycology Held on 8 to 11 October 2021, Aberdeen, Scotland, Organized by the European Confederation of Medical Mycology (ECMM)” (Journal of Fungi, 2021).
In brackets after ≈: the same amount, converted by molar mass.

Key:
[1] = tested on: A. fumigatus (resistant to posaconazole strain v79-63); assay: Neutropenic animal model of invasive pulmonary aspergillosis; assay type: in vivo, CD-1 mice
[2] = tested on: A. fumigatus strain v79-63; assay: EUCAST MIC of the infecting strain; assay type: cell-based; conditions: Aspergillus fumigatus, V7963
A. niger complex = assay: EUCAST E.Def 9.3.2 susceptibility, CPA isolates; assay type: cell-based, Aspergillus niger complex; conditions: n = 7, ECOFFs
[3] = tested on: C. auris clinical strains; assay: organism not typed; assay type: cell-based, Candida auris; conditions: range, 78 strains from patients with COVID-19
R. delemar 99–880 = assay: CLSI M38 in vitro susceptibility; assay type: cell-based, Rhizopus delemar; conditions: Rhizopus delemar, read-out: MIC at 100% inhibition of growth
Method: (§1) Methods & Materials: In vitro susceptibility was conducted by the CLSI M38 method using a clinical isolate of Rhizopus delemar (a common cause of mucormycosis). ICR mice were immunosuppressed with cyclophosphamide and cortisone acetate on days −2, +3, and +8, relative to infection with intratracheally instilled R. delemar. […] Mice survival through Day +21 served as the primary endpoint.

R. delemar = assay: Murine mucormycosis, immunosuppressed mice infected intratracheally; assay type: in vivo, ICR mice; conditions: n = 20/arm
Method: as §1

McLDM strains = assay: EUCAST MIC, S. cerevisiae overexpressing M. circinelloides LDM, resistance phenotypes; assay type: cell-based, Saccharomyces cerevisiae
[4] = Triazole drug levels in ABPA patients with asthma; assay type: in vivo, human; conditions: 452 patients, Oct 2009 to March 2021
From the text: Materials & Methods: This was a retrospective single-centre cohort study evaluating longitudinal outcomes in non-cystic fibrosis (CF) ABPA patients with underlying chronic lung disease (asthma), and description of treatment approaches. Statistical Analysis System (SAS) programming was used for data integration from multiple hospital electronic systems, for patient identification and data analysis. Criteria for inclusion were patients with a background of asthma, serum Total IgE >1000 IU/mL and a positive Aspergillus IgE, with or without a positive culture for A. fumigatus from a respiratory sample. Data collected included demographics, lung function severity, disease activity serological markers (Aspergillus IgE, Aspergillus IgG, Total IgE) and triazole levels. In this study the impact of fungal therapy on disease outcomes was assessed.

[5] = tested on: Exophiala phaeomuriformis; assay: MIC, CLSI M27-A3; assay type: cell-based; conditions: read-out: MIC values
Method: Materials & Methods: The aviation kerosone samples came from an aviation company in Porto Alegre, state of Rio Grande do Sul, Brazil. The fungi isolation was carried out using the modified ASTM D6974-09 Standard. In this procedure, 500 mL kerosene samples were filtered, in triplicate, under aseptic conditions, under vacuum, using a 0.22 μm membrane (Millipore). After filtering, the membranes were deposited in potato dextrose agar culture medium. The plates were incubated in an oven at 30 °C for seven days. After this period, the colonies were isolated in new culture media for purification of the isolates. Molecular identification was performed through the sequencing of ITS DNA regions. The profile of sensitivity to clinical antifungals was assessed following protocols M27-A3 of the Clinical and Laboratory Standards Institute (CLSI).

[6] = tested on: C. auris Isolate B and Isolate C; assay: microbe, parasite or virus in culture; assay type: cell-based, Candida auris
Rhizopus arrhizus = assay: E test; assay type: cell-based
[7] = tested on: Rasamsonia argillacea species complex; assay: Antifungal susceptibility testing; assay type: cell-based; conditions: sputum isolate of a CF patient
[8] = tested on: azole-resistant A. fumigatus SS clinical strains; assay: EUCAST E.DEF 9.3.2; assay type: cell-based; conditions: Aspergillus fumigatus
C. tropicalis = assay: ARIA surveillance, CLSI M27 broth microdilution; assay type: cell-based, Candida tropicalis
Method: Materials & Methods: Isolates (n = 730) were collected and re-identified by MALDI-TOF or molecular methods. […] Percentage susceptibility (%S) or wild-type (%WT) were calculated according to CLSI breakpoints (CLSI supplement M60) or epidemiological cut-off values (CLSI supplement M59), respectively.

Scedosporium apiospermum = assay: EUCAST reference method MIC; assay type: cell-based
Method: Case presentation: A patient presented with a bursitis of their left elbow. Six months before they were treated with lymphodepleting chemotherapy directly followed by B-cell associated CD19-specific chimeric antigen receptor (CAR) T cell therapy for recurrence of follicular lymphoma. They were considered immunocompromised, with total neutrophils and lymphocytes slightly below normal levels, absent B-cells, and a treatment associated persistent hypogammaglobulinaemia. Four weeks before presentation at our hospital they contacted their GP because of swelling and pain of their left elbow. Their GP aspirated fluid from their elbow, injected steroids and started antibiotics, but now there was recurrence of swelling and pain. Bursitis without arthritis was diagnosed by a rheumatologist and the bursa was surgically opened and drained, relieving pus. The patient was started on oral flucloxacillin and sent home. Two days later the culture of the pus from the bursa grew white colonies on a Sabouraud dextrose agar plate, showing long conidophores with large oval conidia on microscopy. […] Over the next few weeks the bursitis symptoms diminished. […] Voriconazole is considered first line treatment for Scedosporium infections. […] Eight weeks later there were no signs of bursitis and posaconazole was discontinued.

[9] = tested on: Phaeoacremonium parasiticum; assay: Antifungal susceptibility testing; assay type: cell-based
Method: Results: Cultures for bacteria were sterile. Culture on Sabouraud was positive after 5 days of incubation, showing slow growing and initially white colonies. […] Its identification was performed by sequencing the internal transcribed spacer (ITS) region of ribosomal DNA, being the isolate identified as Phaeoacremonium parasiticum (100% homology).

A. fumigatus strains = assay: EUCAST E.DEF 9.3.2 broth microdilution; assay type: cell-based, Aspergillus fumigatus; design: MIC Range: unit not given beside the values; MIC50 / MIC90: unit not given here
Method: Methods: The research was conducted on 29 A. fumigatus strains. Minimum inhibitory concentrations (MIC) were detected by broth microdilution method (BM) following EUCAST definitive document E.DEF 9.3.2 and E-test in accordance with manufacturer instructions.

[10] = tested on: A. fumigatus veterinary isolates; assay: EUCAST microdilution of veterinary isolates; assay type: cell-based, Aspergillus fumigatus
Method: All have been confirmed as A. fumigatus by MALDI-TOF MS using the BCCM/IHEM database. The antifungal susceptibility was evaluated using the microdilution EUCAST method. Cyp51A gene sequencing has been performed on all resistant isolates.

A. fumigatus complex = conditions: share of isolates, n = 59, EUCAST clinical breakpoints
eumycetoma = conditions: in vivo; cited from earlier work
From the text: Mycetoma: Mycetoma is a chronic, progressive, implantation inflammatory disease characterised by severe and stigmatising deformities, disability, and high morbidity. The disease is caused by fungi (eumycetoma) and several Actinomycetales members (actinomycetoma). Its estimative global burden is 9000 cases. There are no robust epidemiological studies on mycetoma in SA, but it is tconsidered the third most prevalent endemic IM in SA, especially among low socioeconomic adult males living in rural areas from Argentina, Brazil, Colombia and Venezuela, where the principal agents are Madurella spp. a ...

[11] = tested on: A. fumigatus clinical isolates; assay: Susceptibility of clinical isolates from CF patients; conditions: all 10 clinical isolates

**Q.** Which log10CFU/lung ([1]; mean ± SEM, 3 animals treated for 3 d, placebo 6.1 ± 0.08) does the source give for `CC[C@@H]([C@H](C)O)n1ncn(-c2ccc(N3CCN(c4ccc(OC[C@@H]5CO[C@@](Cn6cncn6)(c6ccc(F)cc6F)C5)cc4)CC3)cc2)c1=O` [posaconazole] here?
**A.** Its log10CFU/lung is 5.2 ± 0.48 log10CFU/lung.

**Q.** What about the survival rates ([1]; survival recorded until 15 d, IL-18 10 ng/mouse intranasally daily -2 d till +7 d, posaconazole 16 mg/kg/day, groups of 10, control 20%) of the same compound?
**A.** Its survival rates is 56%.

**Q.** And the MIC [2]?
**A.** Its MIC is over 16 µg/mL.

**Q.** And the Non-wild type isolates (A. niger complex)?
**A.** Its Non-wild type isolates is 43%.

**Q.** What about the MIC [3] of the same compound?
**A.** Its MIC is 0.06 to 8 µg/mL (≈ 0.0856 to 11.4 µM).

**Q.** And the MIC (R. delemar 99–880)?
**A.** Its MIC is 0.5 µg/mL (≈ 0.713 µM).

**Q.** What about the “% Survival” value (R. delemar; through Day +21, placebo 0) of the same compound?
**A.** Its value is 25%.

**Q.** And the “Median Survival” value (R. delemar; treatment from 24 h post infection, IBREXA 30 mg/kg po BID 7 d, LAMB 10 mg/kg iv 4 d, POSA 30 mg/kg po QD 7 d, placebo 8)?
**A.** The value was 13 days.

**Q.** What about the “MICs compared to AD2Δ” value (McLDM strains) of the same compound?
**A.** The value was “not affected”.

**Q.** What about the “median trough drug level” value [4] of the same compound?
**A.** Its value is 1.39 mg/L.

**Q.** And the MIC [5]?
**A.** Its MIC is 0.125 µg/mL (≈ 0.178 µM).

**Q.** What about the “change of MIC” value [6] of the same compound?
**A.** Its value is “largely unchanged”.

**Q.** What about the “reduction in MIC” value ([6]; Isolate C with ERG11 WT in place of K143R) of the same compound?
**A.** Its value is 2 fold.

**Q.** And the MIC (Rhizopus arrhizus)?
**A.** The MIC was over 32 µg/mL.

**Q.** And the “minimal inhibitory concentrations (MIC)” value [7]?
**A.** Its value is “high minimal inhibitory concentrations”.

**Q.** And the MIC ([8]; strain from pleural fluid of an ICU patient, no mutations in cyp51A)?
**A.** Its MIC is 0.5 µg/mL (≈ 0.713 µM).

**Q.** And the MIC ([8]; two strains from a cystic fibrosis patient, TR34/L98H)?
**A.** The MIC was 1 µg/mL (≈ 1.43 µM).

**Q.** And the WT (C. tropicalis; Argentina)?
**A.** Its WT is 57.1%.

**Q.** What about the WT (C. tropicalis; Australia, Panama, USA and Taiwan) of the same compound?
**A.** The WT was over 90%.

**Q.** And the WT (C. tropicalis; Italy)?
**A.** The WT was 47.4%.

**Q.** What about the MIC (Scedosporium apiospermum; first isolate from bursa pus) of the same compound?
**A.** The MIC was 1 µg/mL (≈ 1.43 µM).

**Q.** What about the MIC (Scedosporium apiospermum; isolate two months later, under posaconazole) of the same compound?
**A.** The MIC was 2 µg/mL (≈ 2.85 µM).

**Q.** And the “minimal inhibitory concentrations (MIC), in words” value [9]?
**A.** Its value is “low”.

**Q.** What about the MIC50 (A. fumigatus strains; 28 h) of the same compound?
**A.** Its MIC50 is 0.25.

**Q.** What about the MIC90 (A. fumigatus strains; 28 h) of the same compound?
**A.** Its MIC90 is 0.5.

**Q.** What about the “MIC Range” value (A. fumigatus strains; 28 h, 29 strains) of the same compound?
**A.** The value was 0.125–2.

**Q.** And the MIC50 (A. fumigatus strains; 48 h)?
**A.** The MIC50 was 0.25.

**Q.** What about the MIC90 (A. fumigatus strains; 48 h) of the same compound?
**A.** The MIC90 was 0.5.

**Q.** What about the “MIC Range” value (A. fumigatus strains; 48 h) of the same compound?
**A.** The value was 0.125–4.

**Q.** What about the “isolates in the area of technical uncertainty (ATU)” value [10] of the same compound?
**A.** The value was 60%.

**Q.** And the Resistance (A. fumigatus complex)?
**A.** Its Resistance is 5%.

**Q.** What about the Cure rate (eumycetoma) of the same compound?
**A.** Its Cure rate is 25–35%.

**Q.** And the susceptibility [11]?
**A.** Its susceptibility is “susceptible”.
